# Data published in US20200077655A1, “Use of an Acyclic Picolinamide Compound as a Fungicide for Control of Phytopathogenic Fungi in Orchard, Vineyard and Plantation Crops” (Dow AgroSciences LLC, priority 2017, published 2020).
# Assays:
# Monilinia laxa (MONILA) = assay: Field assessment on brown rot of flowers in stone fruits (apricots); assay type: in vivo; conditions: 5% EC + Trycol, field grown apricots, protectant
# Description: A fungicidal treatment containing Compound I, applied in a 5% EC formulation and tank mixed with an adjuvant (Trycol, 50% w/w at 0.2% v/v), was sprayed twice during the flowering period on the plant canopy of apricots (PRNAR, Protici variety) at rates of 50, 100, and 150 grams of active ingredient per hectare (g ai/ha). The applications were done at 7 day intervals with disease inoculation at the last application (protectant). The treatment was part of an experimental trial designed as a randomized complete block with four replications and a plot of approximately 4.7×3.1 m, with compound I being applied using a MISTBLOW, Solo backpack applicator at a water volume of 500 L/ha. MONILA disease was evaluated on flowers on a sample of 10 pre-marked branches per tree. The number of infected flowers was counted and consequently the percent incidence was calculated. Visual infection was assessed three times during the trial at 10, 14 and 20 days after the second application. Area under the disease progress curve (AUDPC) was calculated for each plot using the sets of recorded severity data. Relative AUDPC (% control based on AUDPC) was calculated as percent of the nontreated control.
# [1] = test system: Stigmina carpophila (STIGCA); assay: Field assessment of shot hole in almond, leaf and nut incidence; assay type: in vivo; conditions: for Leaf Incidence of STIGCA 121 DAAA: untreated 3.1; for Nut Incidence of STIGCA 121 DAAA: untreated 6.3
# Description: A fungicidal treatment containing Compound I, applied in an SC formulation (MSO built-in) and tank mixed with an adjuvant (Adsee C80W 80%), was sprayed on almond trees (PRNDU, Butte variety), 2 applications, […] The experimental plots were run under natural infestation. The treatment was part of an experimental trial designed as a randomized complete block (RCB) with three replications and a plot of approximately 16×22 ft. Compound I was applied at water volume of 100 gal/acre, using a motorized backpack sprayer (Orifice nozzle 2.3 setting).
# Leaf incidence (number of visual diseased leaves per 20 leaves per tree on the whole plot) was assessed 121 days after application A (121 DAAA).
# Nut incidence (number of visual diseased nuts per 10 nuts per tree on the whole plot) was assessed 121 days after application A (121 DAAA).
# [2] = 120 g ai/ha, Adsee C80W, 300 g ai/ha
compound,measurement,setting,value
"COc1ccnc(C(=O)N[C@@H](C)C(=O)O[C@@H](C)C(c2ccc(F)cc2)c2ccc(F)cc2)c1OC(C)=O [Compound I, (S)-1,1-bis(4-fluorophenyl)propan-2-yl (3-acetoxy-4-methoxypicolinoyl)-L-alaninate]",% Control (AUDPC) from flower incidence assessments,Monilinia laxa (MONILA); 50 g ai/ha,B (51-75)
same,% Control (AUDPC) from flower incidence assessments,Monilinia laxa (MONILA); 100 g ai/ha,A (76-100)
same,% Control (AUDPC) from flower incidence assessments,Monilinia laxa (MONILA); 150 g ai/ha,A (76-100)
same,Leaf Incidence of STIGCA 121 DAAA,"[1]; 60 g ai/ha, MSO, 120 g ai/ha",3.0 Number of Leaves per 20 Leaves
same,Nut Incidence of STIGCA 121 DAAA,"[1]; 60 g ai/ha, MSO, 120 g ai/ha",5.6 Number of Nuts per 10 Nuts
same,Leaf Incidence of STIGCA 121 DAAA,[1]; [2],1.4 Number of Leaves per 20 Leaves
same,Nut Incidence of STIGCA 121 DAAA,[1]; [2],2.5 Number of Nuts per 10 Nuts
same,Leaf Incidence of STIGCA 121 DAAA,"[1]; 120 g ai/ha, MSO, 240 g ai/ha",2.2 Number of Leaves per 20 Leaves
same,Nut Incidence of STIGCA 121 DAAA,"[1]; 120 g ai/ha, MSO, 240 g ai/ha",6.0 Number of Nuts per 10 Nuts
same,Leaf Incidence of STIGCA 121 DAAA,"[1]; 150 g ai/ha, MSO, 300 g ai/ha",1.7 Number of Leaves per 20 Leaves
same,Nut Incidence of STIGCA 121 DAAA,"[1]; 150 g ai/ha, MSO, 300 g ai/ha",4.4 Number of Nuts per 10 Nuts
same,Leaf Incidence of STIGCA 121 DAAA,"[1]; 180 g ai/ha, MSO, 360 g ai/ha",1.9 Number of Leaves per 20 Leaves
same,Nut Incidence of STIGCA 121 DAAA,"[1]; 180 g ai/ha, MSO, 360 g ai/ha",4.4 Number of Nuts per 10 Nuts
